Experimental data from PubChem BioAssay AID1549 (Sanford-Burnham Center for Chemical Genomics, 2009).
Activity calls are given as the source filed them. The rule behind the calls is not given here.

molecular target: Influenza A virus M2 proton channel (A/TW/4845/1999 H1N1); assay: NMR binding screen, influenza A virus M2 proton channel, Kd (AID 1549); conditions: M2 protein

| Structure (SMILES) | Kd |
| --- | --- |
| O=C(Nc1cnccn1)c1cccc(C(F)(F)F)c1 | > 4 mM (inactive) |
| Nc1nc(N)nc(N2C(=O)c3ccccc3C2=O)n1 | > 4 mM (inactive) |
| NC(=O)c1ccccc1N1CCCCC1 | > 4 mM (inactive) |
| Cc1n[nH]c(C)c1CC(=O)O | > 4 mM (inactive) |
| O=C(O)CCCCCCCCCCCCC1C=CCC1 (centres undefined) | > 4 mM (inactive) |
| O=C(c1ncc[nH]1)c1ccccc1C(=O)N1CCOCC1 | > 4 mM (inactive) |
| Cc1nn2c(=O)c(NC(=O)c3ccccc3)cnc2s1 | > 4 mM (inactive) |
| CC(=O)N=c1cccc(NC(C)=O)n1O | > 4 mM (inactive) |
| O=C1C2C3C=CC(C3)C2C(=O)N1CCO (centres undefined) | > 4 mM (inactive) |
| Cc1ccc(C(=O)n2cnnc2N)cc1C | > 4 mM (inactive) |
| Cc1nnc(NCCO)[nH]c1=O | > 4 mM (inactive) |
| CN1CCN(C(=O)c2ccccc2C(=O)O)CC1 | > 4 mM (inactive) |
| Cc1ccc(-n2[nH]c(C)cc2=O)cc1 | > 4 mM (inactive) |
| O=C(Nc1cnccn1)c1cccs1 | > 4 mM (inactive) |
| Cc1cc(NS(=O)(=O)Cc2ccccc2)no1 | > 4 mM (inactive) |
| CN(c1ccccc1C(=O)N1CCOCC1)S(C)(=O)=O | > 4 mM (inactive) |
| CC(=O)Nc1ccc(C(=O)N2CCOCC2)cc1Cl | > 4 mM (inactive) |
| O=C(NCN1CCOCC1)c1cnccn1 | > 4 mM (inactive) |
| COC(=O)C[C@H]1C2(C)CC34OC5(C)O[C@@]6([C@H](OC(C)=O)C(OC(C)=O)[C@]7(C)C(/C(=C(/O)C(C)C)C(=O)O[C@H]7c7ccoc7)[C@@]6(O5)[C@H](OC(C)=O)[C@@]3(O)C2OC(=O)C(C)C)[C@]14C (some centres undefined) | > 4 mM (inactive) |
| COc1cccc(NC(=O)c2ncn[nH]2)c1 | > 4 mM (inactive) |

| Structure (SMILES) | Kd |
| --- | --- |
| Nc1ccc2c(c1)S(=O)(=O)C=C2 | > 4 mM (inactive) |
| C=Cc1c(C)c2cc3[nH]c(cc4nc(cc5nc(cc1[nH]2)C(C)=C5CCC(=O)O)C(CCC(=O)O)=C4C)c(C)c3C=C | > 4 mM (inactive) |
| CN1C(=O)c2ccc(C(=O)NCc3ccccc3)cc2C1=O | > 4 mM (inactive) |
| Cc1ccc(C)c(C(=O)n2cnnc2N)c1 | > 4 mM (inactive) |
| COc1ccc2ccc(=O)oc2c1 | > 4 mM (inactive) |
| O=C(c1ccc(Cl)s1)N1CCOCC1 | > 4 mM (inactive) |
| O=C(Nc1cccnc1)Nc1ccc2c(c1)OCO2 | > 4 mM (inactive) |
| CSc1nnnn1-c1cccc(O)c1 | > 4 mM (inactive) |
| OCC1CCN(c2ncccn2)CC1 | > 4 mM (inactive) |
| COc1cc2c(cc1OC)[C@@H]1C(=O)c3ccc(OC)c(CC=C(C)C)c3O[C@@H]1CO2 | > 4 mM (inactive) |
| CC(=O)NN1C(=O)c2cccc3cccc(c23)C1=O | > 4 mM (inactive) |
| Cc1ccccc1C(=O)Nn1cnnc1 | > 4 mM (inactive) |
| O=C(Nc1nncs1)c1c(F)c(F)c(F)c(F)c1F | > 4 mM (inactive) |
| Nc1ncnc2c1ncn2CCN1CCOCC1 | > 4 mM (inactive) |
| O=C(O)/C=C/C=C/c1ccccc1 | > 4 mM (inactive) |
| O=C1C2=C(SCCS2)C(=O)N1CCCO | > 4 mM (inactive) |
| C=C[C@@](C)(O)CCC1C(=C)CCC2[C@@](C)(CO)CCC[C@]12C (some centres undefined) | > 4 mM (inactive) |
| CN(C)CCNC(CC(=O)Nc1ccccc1)C(=O)O (centres undefined) | > 4 mM (inactive) |
| CC(=O)N1CCc2ccccc2C1CC(=O)O (centres undefined) | > 4 mM (inactive) |
| COC(=O)c1cccc(C(F)(F)F)c1 | > 4 mM (inactive) |

| Structure (SMILES) | Kd |
| --- | --- |
| NC(=O)CSc1nc2[nH]ncc2c(=O)[nH]1 | > 4 mM (inactive) |
| O=C(O)c1ccc2ccccc2n1 | > 4 mM (inactive) |
| O=C1CCCc2c(O)cccc21 | > 4 mM (inactive) |
| O=C(/C=C/c1ccccc1)c1ccc(O[C@@H]2O[C@H](CO)[C@@H](O)[C@H](O)[C@H]2O)cc1O | > 4 mM (inactive) |
| CCC(C)C(=O)OC1[C@@H]2CC3=C4CC(=O)O[C@@H](c5ccoc5)[C@]4(C)CCC3C(C)(C2=O)[C@@H](CC(=O)OC)C1(C)C (some centres undefined) | > 4 mM (inactive) |
| Cc1cc(O)c(C=O)c(O)c1C(=O)O | > 4 mM (inactive) |
| CCN1CCC(NC2CCC(O)CC2)CC1 (centres undefined) | > 4 mM (inactive) |
| CC(=O)Nc1ccc(NC2SC(=O)NC2=O)cc1 (centres undefined) | > 4 mM (inactive) |
| C=C1C[C@]23C[C@@]1(O)CC[C@H]2[C@@]12C=C[C@H](O)C(C)(C(=O)O1)[C@H]2[C@@H]3C(=O)O | > 4 mM (inactive) |
| O=C(O)CCC(=O)c1c[nH]c2ccccc12 | > 4 mM (inactive) |
| NC12CC3CC(C1)CC(CC(=O)O)(C3)C2 | > 4 mM (inactive) |
| O=c1sc2ccccc2n1CN1CCOCC1 | > 4 mM (inactive) |
| CN1C(=O)Cc2cc(S(N)(=O)=O)ccc21 | > 4 mM (inactive) |
| COC(=O)c1ccc2nc[nH]c2c1 | > 4 mM (inactive) |
| NC(=O)c1cc(Cl)c(C(N)=O)cc1Cl | > 4 mM (inactive) |
| C[C@@H]1O[C@@H](O[C@H]2[C@@H](Oc3cc(O)c4c(c3)O[C@H](c3ccc(O)cc3)CC4=O)O[C@H](CO)[C@@H](O)[C@@H]2O)[C@H](O)[C@H](O)[C@H]1O | > 4 mM (inactive) |
| CN1C(=O)c2ccc(N=C3NC(=O)CS3)cc2C1=O | > 4 mM (inactive) |
| CC1SC(=NC(=O)c2ccncc2)NC1=O (centres undefined) | > 4 mM (inactive) |
| CC(=O)c1cccc(NC2=NCC(C)(C)S2)c1 | > 4 mM (inactive) |
